Measured values: ChEMBL document CHEMBL1201862, “PubChem BioAssay data set” (2004)
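All cell lines were grown in 96-well plates and treated with compound for 48 hours. GI50 marks 50% less growth.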 Calls of active or inactive are those of the source. Rule as the data show it: active = GI50 up to about 1.1 µM and inactive = higher.

Experiments:
Experiment in all cases: NCI anticancer screen, dose series, 48 h
[1] = tested on: MDA-N
[2] = tested on: HCC 2998
[3] = tested on: IGROV-1
[4] = tested on: MCF7
[5] = tested on: U-251
[6] = tested on: MDA-MB-435
[7] = tested on: SNB-19
[8] = tested on: OVCAR-5
[9] = tested on: RPMI-8226
[10] = tested on: SK-OV-3
[11] = tested on: HL-60
[12] = tested on: T47D
[13] = tested on: PC-3
[14] = tested on: EKVX
[15] = tested on: 786-0
[16] = tested on: NCI-H522
[17] = tested on: MDA-MB-231
[18] = tested on: OVCAR-3
[19] = tested on: RXF 393
[20] = tested on: M14
[21] = tested on: SK-MEL-2
[22] = tested on: HT-29
[23] = tested on: SF-295
[24] = tested on: NCI-H23
[25] = tested on: Malme-3M
[26] = tested on: OVCAR-4
[27] = tested on: UACC-62
[28] = tested on: CAKI-1
[29] = tested on: NCI/ADR-RES
[30] = tested on: KM12
[31] = tested on: K562
[32] = tested on: ACHN
[33] = tested on: HCT-116
[34] = tested on: LOX IMVI
[35] = tested on: UO-31
[36] = tested on: DU-145
[37] = tested on: BT-549
[38] = tested on: NCI-H226
[39] = tested on: Hs-578T
[40] = tested on: SF-268
[41] = tested on: SR
[42] = tested on: COLO 205
[43] = tested on: MOLT-4
[44] = tested on: SN12C
[45] = tested on: HOP-92
[46] = tested on: TK-10
[47] = tested on: A549
[48] = tested on: SNB-75
[49] = tested on: SK-MEL-28
[50] = tested on: HOP-62
[51] = tested on: SW-620
[52] = tested on: HCT-15
[53] = tested on: OVCAR-8
[54] = tested on: UACC-257
[55] = tested on: SK-MEL-5
[56] = tested on: NCI-H460
[57] = tested on: CCRF-CEM
[58] = tested on: SF-539

CCOC(=O)c1c(N)sc2c1CC(C)CC2 (stereo unspecified)
GI50 [1]: 47.5 µM (inactive)
GI50 [2]: 19.7 µM (inactive)
GI50 [3]: 57.4 µM (inactive)
GI50 [4]: 32.9 µM (inactive)
GI50 [5]: 42.4 µM (inactive)
GI50 [6]: 41.2 µM (inactive)
GI50 [7]: 31 µM (inactive)
GI50 [8]: 55.3 µM (inactive)
GI50 [9]: 30 µM (inactive)
GI50 [10]: 47.6 µM (inactive)
GI50 [11]: 0.292 µM (active)
GI50 [12]: 32.5 µM (inactive)
GI50 [13]: 29.4 µM (inactive)
GI50 [14]: 32.6 µM (inactive)
GI50 [15]: 23.4 µM (inactive)
GI50 [16]: 18.4 µM (inactive)
GI50 [17]: 33.4 µM (inactive)
GI50 [18]: 46.1 µM (inactive)
GI50 [19]: 18.6 µM (inactive)
GI50 [20]: 26.8 µM (inactive)
GI50 [21]: 31.9 µM (inactive)
GI50 [22]: 22.4 µM (inactive)
GI50 [23]: 45 µM (inactive)
GI50 [24]: 63.7 µM (inactive)
GI50 [25]: 38 µM (inactive)
GI50 [26]: 34.1 µM (inactive)
GI50 [27]: 51.2 µM (inactive)
GI50 [28]: 49 µM (inactive)
GI50 [29]: 44.3 µM (inactive)
GI50 [30]: 41.5 µM (inactive)
GI50 [31]: 39.4 µM (inactive)
GI50 [32]: 39.9 µM (inactive)
GI50 [33]: 47.6 µM (inactive)
GI50 [34]: 42.2 µM (inactive)
GI50 [35]: 32.3 µM (inactive)
GI50 [36]: 67.5 µM (inactive)
GI50 [37]: 54.2 µM (inactive)
GI50 [38]: 23.5 µM (inactive)
GI50 [39]: 43.7 µM (inactive)
GI50 [40]: 45.1 µM (inactive)
GI50 [41]: 28.6 µM (inactive)
GI50 [42]: 27.9 µM (inactive)
GI50 [43]: 30.9 µM (inactive)
GI50 [44]: 44.4 µM (inactive)
GI50 [45]: 27.7 µM (inactive)
GI50 [46]: 45.6 µM (inactive)
GI50 [47]: 38.5 µM (inactive)
GI50 [48]: 26.5 µM (inactive)
GI50 [49]: 53.5 µM (inactive)
GI50 [50]: 52.5 µM (inactive)
GI50 [51]: 55.6 µM (inactive)
GI50 [52]: 41.8 µM
GI50 [53]: 45.3 µM (inactive)
GI50 [54]: 31.2 µM (inactive)
GI50 [55]: 19.2 µM (inactive)
GI50 [56]: 35.6 µM (inactive)

CCOC(=O)CCc1cn2cc(Br)nc(OC)c2n1
GI50 [1]: 3.1 µM (inactive)
GI50 [2]: > 100 µM (inactive)
GI50 [3]: 65.6 µM (inactive)
GI50 [4]: 16.2 µM (inactive)
GI50 [5]: 65.6 µM (inactive)
GI50 [6]: 2.82 µM (inactive)
GI50 [7]: > 100 µM (inactive)
GI50 [9]: 44 µM (inactive)
GI50 [10]: 48.1 µM (inactive)
GI50 [11]: > 100 µM (inactive)
GI50 [12]: 46.3 µM (inactive)
GI50 [13]: 50.9 µM (inactive)
GI50 [14]: > 100 µM (inactive)
GI50 [15]: > 100 µM (inactive)
GI50 [16]: 81.8 µM (inactive)
GI50 [57]: 10.1 µM (inactive)
GI50 [17]: 39.2 µM (inactive)
GI50 [18]: 57.7 µM (inactive)
GI50 [58]: 50.5 µM (inactive)
GI50 [19]: 40.2 µM (inactive)
GI50 [20]: > 100 µM (inactive)
GI50 [21]: > 100 µM (inactive)
GI50 [22]: 17.9 µM (inactive)
GI50 [23]: 57.7 µM (inactive)
GI50 [24]: 67.5 µM (inactive)
GI50 [25]: > 100 µM (inactive)
GI50 [26]: > 100 µM (inactive)
GI50 [27]: 36 µM (inactive)
GI50 [28]: > 100 µM (inactive)
GI50 [29]: 24.9 µM (inactive)
GI50 [30]: 5.41 µM (inactive)
GI50 [31]: 4.75 µM (inactive)
GI50 [33]: 14.8 µM (inactive)
GI50 [34]: 90.2 µM (inactive)
GI50 [35]: 23.2 µM (inactive)
GI50 [36]: 51.6 µM (inactive)
GI50 [37]: > 100 µM (inactive)
GI50 [38]: > 100 µM (inactive)
GI50 [39]: > 100 µM (inactive)
GI50 [40]: > 100 µM (inactive)
GI50 [41]: 72.6 µM (inactive)
GI50 [42]: 9.12 µM (inactive)
GI50 [43]: 13.3 µM (inactive)
GI50 [44]: 75.9 µM (inactive)
GI50 [46]: > 100 µM (inactive)
GI50 [47]: 62.4 µM (inactive)
GI50 [48]: 26.1 µM (inactive)
GI50 [49]: > 100 µM (inactive)
GI50 [50]: 53.2 µM (inactive)
GI50 [51]: 16.2 µM (inactive)
GI50 [52]: 6.5 µM
GI50 [53]: 59.2 µM (inactive)
GI50 [54]: > 100 µM (inactive)
GI50 [55]: 7.85 µM (inactive)
GI50 [56]: > 100 µM (inactive)

O=C(/C=C/c1ccc2c(c1)OCO2)NCCc1ccco1
GI50 [1]: > 100 µM (inactive)
GI50 [2]: > 100 µM (inactive)
GI50 [3]: 19.5 µM (inactive)
GI50 [4]: 49.4 µM (inactive)
GI50 [5]: > 100 µM (inactive)
GI50 [6]: 64.7 µM (inactive)
GI50 [7]: > 100 µM (inactive)
GI50 [8]: > 100 µM (inactive)
GI50 [9]: 21.8 µM (inactive)
GI50 [10]: > 100 µM (inactive)
GI50 [12]: 26.5 µM (inactive)
GI50 [13]: 50.8 µM (inactive)
GI50 [14]: 73.3 µM (inactive)
GI50 [16]: 37.9 µM (inactive)
GI50 [57]: 59.8 µM (inactive)
GI50 [17]: 44.8 µM (inactive)
GI50 [18]: 34.4 µM (inactive)
GI50 [58]: > 100 µM (inactive)
GI50 [19]: > 100 µM (inactive)
GI50 [20]: 45.5 µM (inactive)
GI50 [21]: > 100 µM (inactive)
GI50 [22]: > 100 µM (inactive)
GI50 [23]: 54.8 µM (inactive)
GI50 [24]: > 100 µM (inactive)
GI50 [25]: 41.6 µM (inactive)
GI50 [26]: > 100 µM (inactive)
GI50 [27]: 44.2 µM (inactive)
GI50 [28]: 52.5 µM (inactive)
GI50 [29]: 57.3 µM (inactive)
GI50 [30]: > 100 µM (inactive)
GI50 [31]: 39.7 µM (inactive)
GI50 [32]: 53 µM (inactive)
GI50 [33]: 68.9 µM (inactive)
GI50 [34]: 78.5 µM (inactive)
GI50 [35]: 41 µM (inactive)
GI50 [36]: > 100 µM (inactive)
GI50 [37]: > 100 µM (inactive)
GI50 [38]: 90.2 µM (inactive)
GI50 [39]: 65.3 µM (inactive)
GI50 [40]: > 100 µM (inactive)
GI50 [41]: 18.5 µM (inactive)
GI50 [42]: > 100 µM (inactive)
GI50 [43]: 48.9 µM (inactive)
GI50 [44]: > 100 µM (inactive)
GI50 [45]: 92.7 µM (inactive)
GI50 [46]: 65.8 µM (inactive)
GI50 [47]: 89.5 µM (inactive)
GI50 [48]: > 100 µM (inactive)
GI50 [49]: > 100 µM (inactive)
GI50 [50]: 83.8 µM (inactive)
GI50 [51]: > 100 µM (inactive)
GI50 [53]: > 100 µM (inactive)
GI50 [54]: 49.8 µM (inactive)
GI50 [55]: 23.7 µM (inactive)
GI50 [56]: 69.8 µM (inactive)
